Values of other authors as cited in patent US20100034838A1, “Transdermal Administration of Active Agents for Systemic Effect” (priority 2005, published 2010).

CN1CCCC1c1cccnc1 (centres unmarked) [nicotine]
nicotine levels in the blood (nicotine patches, approximately 4-6 hours after adhesion of a medicinal patch to the skin): 10 to 15 ng/mL
blood nicotine peak (smoking a cigarette, approximately 5 minutes after smoking is commenced): about 25 ng/ml
